Laboratory results published in patent US20210317145A1, “Boronic Acid Derivatives” (Merck Patent GmbH, priority 2018, published 2021).
pIC50: −log10 of the molar value.

Legend:
[1] = target: LMP7 subunit of the immunoproteasome (Homo sapiens, UniProt P20618+P28062); details: Singh et al, Br. J. Hematology 152(2): 155-163; cited from earlier work
[2] = target: LMP7 (purified human immuno proteasome) (Homo sapiens, UniProt P20618+P28062); assay: Determination of LMP7 activity (fluorescence intensity assay, Suc-LLVY-AMC); assay type: biochemical; details: for Selectivity LMP7 vs Beta5: LMP7 versus Beta5, incubation for 20 minutes; for pIC50: purified human immuno proteasome 0.25 nM, incubation for 20 minutes at 25° C., Suc-LLVY-AMC 40 μM
Method: Determination of LMP7 Activity:
Measurement of LMP7 inhibition is performed in 384 well format based on fluorescence intensity assay.
(§1) Purified human immuno proteasome (0.25 nM) and serial diluted compounds in DMSO (range of concentrations from 30 μM to […]) or controls are incubated for 20 minutes or 120 minutes (long incubation) at 25° C. in assay buffer containing 50 mM Tris pH 7.4, 0.03% SDS, 1 mM EDTA and 1% DMSO. The reaction is initiated by the addition of the fluorogenic peptide substrate, Suc-LLVY-AMC (Bachem 1-1395), at a concentration of 40 μM. After 60 minutes of incubation at 37° C., fluorescence intensity is measured at λex=350 nm and λem=450 nm with a fluorescence reader (Perkin Elmer Envision reader or equivalent).
(§2) Unless indicated otherwise the results are obtained after incubation for 20 minutes.

[3] = target: Beta5 (purified human constitutive proteasome) (Homo sapiens, UniProt P20618+P28074); assay: Determination of Beta5 activity (fluorescence intensity assay, Suc-LLVY-AMC); assay type: biochemical; details: purified human constitutive proteasome 1.25 nM, incubation for 20 minutes at 25° C., Suc-LLVY-AMC 40 μM
Method: Determination of Beta5 Activity:
Measurement of Beta5 inhibition is performed in 384 well format based on fluorescence intensity assay.
as §1, with “constitutive” for “immuno”, “(1.25” for “(0.25”
as §2

| SMILES | selective inhibitor of the LMP7 subunit of the immunoproteasome [1] [fold] | Selectivity LMP7 vs Beta5 [2] | pIC50 [2] | pIC50 [3] |
| --- | --- | --- | --- | --- |
| CC1=C(C(=O)N[C@H](C)C(=O)N[C@@H](Cc2c[nH]c3ccccc23)C(=O)N[C@@H](Cc2ccccc2)C(=O)[C@@]2(C)CO2)Cc2ccccc21 [PR-924] | 100 |  |  |  |
| O=C(N[C@@H](Cc1coc2ccccc12)B(O)O)C1OCCS1 (stereo partly drawn) [Compound 11, [(1R)-2-(benzofuran-3-yl)-1-(1,3-oxathiolane-2-carbonylamino)ethyl]-boronic acid] |  | ++ (100 ≤ Selectivity < 300) | ≥ 7.30 | 6.30 to 7.30 |
| O=C(N[C@@H](C[C@@H]1COc2ccccc21)B(O)O)[C@@H]1CCOC1 [Compound 41, [(1R)-2-[(3S)-2,3-dihydrobenzofuran-3-yl]-1-[[(3R)-tetra-hydrofuran-3-carbonyl]-amino]ethyl]boronic acid] |  | ++++ (Selectivity ≥ 500) | 6.30 to 7.30 | 4.52 to 5.30 |
| O=C(N[C@@H](Cc1coc2ccccc12)B(O)O)[C@@H]1CCCO1 [Compound 26, [(1R)-2-(benzofuran-3-yl)-1-[[(2S)-tetrahydro-furan-2-carbonyl]amino]-ethyl]boronic acid] |  | ++ (100 ≤ Selectivity < 300) | 6.30 to 7.30 | 4.52 to 5.30 |
| CCSCC(=O)N[C@@H](Cc1coc2ccccc12)B(O)O [Compound 13, [(1R)-2-(benzofuran-3-yl)-1-[(2-ethylsulfanyl-acetyl)amino]ethyl]-boronic acid] |  | +++ (300 ≤ Selectivity < 500) | ≥ 7.30 | 5.30 to 6.30 |
| Cc1cccc2c1OC[C@H]2C[C@H](NC(=O)[C@@H]1CCOC1)B(O)O [Compound 42, [(1R)-2-[(3S)-7-methyl-2,3-dihydrobenzofuran-3-yl]-1-[[(3R)-tetra-hydrofuran-3-carbonyl]-amino]ethyl]boronic acid] |  | +++ (300 ≤ Selectivity < 500) | 6.30 to 7.30 | 4.52 to 5.30 |
| O=C(N[C@@H](Cc1coc2ccccc12)B(O)O)[C@@H]1CCOC1 [Compound 33, [(1R)-2-(benzofuran-3-yl)-1-[[(3R)-tetrahydro-furan-3-carbonyl]-amino]ethyl]boronic acid] |  | ++++ (Selectivity ≥ 500) | ≥ 7.30 | 5.30 to 6.30 |
| COc1cccc2occ(C[C@H](NC(=O)CSC)B(O)O)c12 [Compound 4, [(1R)-2-(4-methoxy-benzofuran-3-yl)-1-[(2-methylsulfanylacetyl)-amino]ethyl]boronic acid] |  | + (Selectivity <100) | 5.30 to 6.30 | 4.52 to 5.30 |
| Cc1cccc2c(C[C@H](NC(=O)[C@H]3CCCO3)B(O)O)coc12 [Compound 29, [(1R)-2-(7-methylbenzo-furan-3-yl)-1-[[(2R)-tetrahydrofuran-2-carbonyl]amino]ethyl]-boronic acid] |  | ++ (100 ≤ Selectivity < 300) | ≥ 7.30 | 5.30 to 6.30 |
| CSCC(=O)N[C@@H](Cc1coc2c(C(F)(F)F)cccc12)B(O)O [Compound 3, [(1R)-1-[(2-methyl-sulfanylacetyl)amino]-2-[7-(trifluoromethyl)-benzofuran-3-yl]ethyl]-boronic acid] |  | +++ (300 ≤ Selectivity < 500) | ≥ 7.30 | 5.30 to 6.30 |
| O=C(N[C@@H](Cc1coc2ccccc12)B(O)O)[C@@H]1COCCO1 [Compound 39, [(1R)-2-(benzofuran-3-yl)-1-[[(2S)-1,4-dioxane-2-carbonyl]-amino]ethyl]boronic acid] |  | ++ (100 ≤ Selectivity < 300) | ≥ 7.30 | 5.30 to 6.30 |
